From patent publication US20250324969A1

Tests used:
Culex quinquefasciatus = conditions: J. Med. Entomol. 41 (4) (2004); cited from earlier work
[1] = test system: VKPR mosquito strain (also called VKPER) of Anopheles gambiae; conditions: VKPR strain with mutation for knockdown resistance to pyrethroids; cited from earlier work
Anopheles gambiae = conditions: J. Med. Entomol. 41 (4) (2004); cited from earlier work
Aedes aegypti = conditions: J. Med. Entomol. 41 (4) (2004); cited from earlier work
[2] = test system: ACE (acetylcholinesterase) of resistant mosquitoes; conditions: 10 microliters insecticide solution (10^-2 M), 15 min at ambient temperature, optical density over 10 min
Procedure: (§1) The differences in the properties of the ACE (acetylcholinesterase) between mosquitoes that have this form of resistance and sensitive mosquitoes can be detected using the following test: • Experimental protocol TESTS No.-1: Sensitive and resistant mosquitoes.
(§2) 1° the mosquito (or larva) is crushed and the crushed material is homogenized in an Eppendorf tube with a buffer solution (20 mM tris, pH 7, containing 1% of Triton X-100). After centrifugation at 10,000 g for 2 minutes, the supernatant (which contains the ACE) is collected and distributed in the wells (A) and (B) of a microplate (100 microliters in each well),
(§3) Johnson in well (B), and 10 microliters of alcohol, in well (A). The microplate is left for 15 min at ambient temperature (which is sufficient to allow the action, if any, of the insecticide),
(§4) 3°determination of the catalytic activity of the ACE (acetylcholinesterase): in each well is added 100 microliters of a solution containing acetylcholine (2.5 mM) and 0.2 mM of DTNB (dinitro-2-benzoic). The intensity of the coloration is assessed by measuring the optical density (the optical density increases based on the coloration) If the enzyme is active, the products of the hydrolysis of the acetylcholine react with the DTNB to produce a substance that features an absorption peak for the radiations of 412 nm. It is therefore possible to follow the reaction by spectrophotometry. […]

[3] = test system: ACE (acetylcholinesterase) of sensitive mosquitoes; conditions: 10 microliters insecticide solution (10^-2 M), 15 min at ambient temperature, optical density over 10 min
Procedure: as §1, §2, §3, §4

Row | Compound | Effect on mosquitoes (Culex quinquefasciatus) | Effect on mosquitoes [1] | Effect on mosquitoes (Anopheles gambiae) | Effect on mosquitoes (Aedes aegypti) | Effect of the insecticide on ACE catalytic activity (evolution of the optical density, insecticide well (B) vs control well (A)) [2] | Effect of the insecticide on ACE catalytic activity (evolution of the optical density, insecticide well (B) vs control well (A)) [3]
1 | CN/C(=N/CC1CCOC1)N[N+](=O)[O-] (stereo not drawn) [Dinotefuran] | lethal effect | lethal effect | lethal effect | lethal effect |  | 
2 | CNC(=O)Oc1ccccc1OC(C)C [Propoxur] |  |  |  |  | completely resistant | insufficient to prevent the Propoxur insecticide (Baygon) from working
